# Tests used:
# [1] = target: T1, Endothelin receptor type B (Homo sapiens, UniProt P24530)
# T1 sequence (P24530 whole entry): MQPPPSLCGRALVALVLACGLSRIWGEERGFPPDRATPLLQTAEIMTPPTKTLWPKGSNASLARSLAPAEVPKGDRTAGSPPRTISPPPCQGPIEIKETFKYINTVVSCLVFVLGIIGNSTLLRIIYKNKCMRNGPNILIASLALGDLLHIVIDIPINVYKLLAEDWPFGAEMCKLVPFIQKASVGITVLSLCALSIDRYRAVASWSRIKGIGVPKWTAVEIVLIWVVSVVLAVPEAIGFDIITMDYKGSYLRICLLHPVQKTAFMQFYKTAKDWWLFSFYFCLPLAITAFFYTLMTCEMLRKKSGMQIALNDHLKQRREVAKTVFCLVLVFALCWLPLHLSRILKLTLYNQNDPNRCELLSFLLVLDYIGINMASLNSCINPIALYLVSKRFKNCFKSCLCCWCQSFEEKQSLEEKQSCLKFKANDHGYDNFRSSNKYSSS
# Glucagon receptor = Glucagon receptor (Homo sapiens, UniProt P47871)
# Glucagon receptor, sequence (P47871 whole entry): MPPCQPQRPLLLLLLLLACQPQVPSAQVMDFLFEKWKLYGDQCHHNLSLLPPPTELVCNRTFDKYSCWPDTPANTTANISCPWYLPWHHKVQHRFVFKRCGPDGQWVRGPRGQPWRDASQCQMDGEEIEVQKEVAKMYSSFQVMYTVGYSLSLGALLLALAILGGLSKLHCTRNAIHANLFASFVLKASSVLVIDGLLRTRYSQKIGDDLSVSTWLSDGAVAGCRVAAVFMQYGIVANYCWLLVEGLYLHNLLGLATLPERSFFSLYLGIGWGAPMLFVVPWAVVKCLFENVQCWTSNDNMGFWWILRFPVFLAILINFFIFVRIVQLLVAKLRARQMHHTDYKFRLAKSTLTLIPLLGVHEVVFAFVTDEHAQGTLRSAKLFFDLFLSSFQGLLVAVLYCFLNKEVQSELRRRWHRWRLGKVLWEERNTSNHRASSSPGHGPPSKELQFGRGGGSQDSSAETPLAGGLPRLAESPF
# [2] = target: 5-hydroxytryptamine receptor 2B (Homo sapiens, UniProt P41595)
# 5-hydroxytryptamine receptor 2B, sequence (P41595 whole entry): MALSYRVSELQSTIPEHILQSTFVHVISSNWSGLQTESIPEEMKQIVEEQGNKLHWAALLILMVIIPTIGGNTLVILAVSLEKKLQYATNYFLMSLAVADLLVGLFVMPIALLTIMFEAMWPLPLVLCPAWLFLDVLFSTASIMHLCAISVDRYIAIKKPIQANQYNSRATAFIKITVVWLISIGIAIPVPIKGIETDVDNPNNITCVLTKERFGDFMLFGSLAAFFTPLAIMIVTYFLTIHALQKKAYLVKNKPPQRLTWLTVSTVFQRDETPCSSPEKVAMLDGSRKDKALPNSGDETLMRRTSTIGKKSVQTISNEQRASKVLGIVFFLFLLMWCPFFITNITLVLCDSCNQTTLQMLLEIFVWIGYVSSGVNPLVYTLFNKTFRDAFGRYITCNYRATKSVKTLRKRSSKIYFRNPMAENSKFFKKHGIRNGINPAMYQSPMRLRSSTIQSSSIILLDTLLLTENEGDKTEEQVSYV
# [3] = target: T2, Neuropeptide Y receptor type 2 (Homo sapiens, UniProt P49146)
# T2 sequence (P49146 whole entry): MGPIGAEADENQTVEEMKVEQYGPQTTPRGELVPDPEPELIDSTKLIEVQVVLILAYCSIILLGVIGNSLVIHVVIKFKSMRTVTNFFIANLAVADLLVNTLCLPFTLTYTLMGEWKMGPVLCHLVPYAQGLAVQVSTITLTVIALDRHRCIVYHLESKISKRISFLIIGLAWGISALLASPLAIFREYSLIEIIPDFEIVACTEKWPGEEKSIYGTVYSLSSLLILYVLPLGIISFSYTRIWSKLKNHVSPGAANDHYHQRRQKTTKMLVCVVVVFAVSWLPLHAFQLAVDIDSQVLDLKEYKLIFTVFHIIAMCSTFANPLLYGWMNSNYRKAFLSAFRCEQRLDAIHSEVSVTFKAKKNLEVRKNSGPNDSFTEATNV
# [4] = target: Synaptic vesicular amine transporter (Rattus norvegicus, UniProt Q01827); type: functional
# Synaptic vesicular amine transporter, sequence (Q01827 whole entry): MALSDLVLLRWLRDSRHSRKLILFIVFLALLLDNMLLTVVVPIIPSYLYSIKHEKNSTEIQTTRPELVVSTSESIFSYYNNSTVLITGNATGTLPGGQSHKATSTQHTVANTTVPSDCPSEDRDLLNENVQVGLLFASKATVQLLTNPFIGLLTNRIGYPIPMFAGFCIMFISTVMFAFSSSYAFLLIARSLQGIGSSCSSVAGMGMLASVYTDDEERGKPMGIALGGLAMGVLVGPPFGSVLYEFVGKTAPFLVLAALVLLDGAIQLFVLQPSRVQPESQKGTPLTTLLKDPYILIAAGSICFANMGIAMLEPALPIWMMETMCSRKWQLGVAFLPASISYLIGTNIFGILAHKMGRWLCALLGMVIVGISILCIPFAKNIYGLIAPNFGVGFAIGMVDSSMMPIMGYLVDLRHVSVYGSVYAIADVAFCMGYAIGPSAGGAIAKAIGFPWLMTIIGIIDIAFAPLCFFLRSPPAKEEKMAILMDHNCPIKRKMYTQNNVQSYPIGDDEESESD
# [5] = target: T3, 5-hydroxytryptamine receptor 1A (Homo sapiens, UniProt P08908)
# T3 sequence (P08908 whole entry): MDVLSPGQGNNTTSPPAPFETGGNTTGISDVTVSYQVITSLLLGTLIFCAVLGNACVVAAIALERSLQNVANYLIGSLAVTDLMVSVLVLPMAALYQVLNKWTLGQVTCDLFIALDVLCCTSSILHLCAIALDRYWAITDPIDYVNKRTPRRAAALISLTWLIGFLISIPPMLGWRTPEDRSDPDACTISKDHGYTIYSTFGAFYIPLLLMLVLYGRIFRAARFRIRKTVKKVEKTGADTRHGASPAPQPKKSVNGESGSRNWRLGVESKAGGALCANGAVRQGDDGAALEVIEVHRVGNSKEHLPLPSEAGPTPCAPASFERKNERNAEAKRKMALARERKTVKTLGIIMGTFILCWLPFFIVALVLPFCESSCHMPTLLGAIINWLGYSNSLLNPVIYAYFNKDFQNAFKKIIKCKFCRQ
# D(1A) dopamine receptor = D(1A) dopamine receptor (Homo sapiens, UniProt P21728)
# D(1A) dopamine receptor, sequence (P21728 whole entry): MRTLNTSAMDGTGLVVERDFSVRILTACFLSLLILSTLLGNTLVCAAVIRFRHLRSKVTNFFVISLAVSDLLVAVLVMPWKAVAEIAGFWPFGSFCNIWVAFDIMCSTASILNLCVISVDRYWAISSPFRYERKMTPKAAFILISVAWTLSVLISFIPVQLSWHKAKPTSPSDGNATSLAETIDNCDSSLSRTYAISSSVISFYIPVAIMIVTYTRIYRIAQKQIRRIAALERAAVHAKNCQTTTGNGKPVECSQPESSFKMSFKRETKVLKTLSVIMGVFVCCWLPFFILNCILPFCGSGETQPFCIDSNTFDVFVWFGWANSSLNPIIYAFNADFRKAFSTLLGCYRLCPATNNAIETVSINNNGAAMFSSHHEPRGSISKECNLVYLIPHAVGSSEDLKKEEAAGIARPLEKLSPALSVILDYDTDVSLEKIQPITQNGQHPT
# [6] = target: T4, Alpha-1A adrenergic receptor (Homo sapiens, UniProt P35348)
# T4 sequence (P35348 whole entry): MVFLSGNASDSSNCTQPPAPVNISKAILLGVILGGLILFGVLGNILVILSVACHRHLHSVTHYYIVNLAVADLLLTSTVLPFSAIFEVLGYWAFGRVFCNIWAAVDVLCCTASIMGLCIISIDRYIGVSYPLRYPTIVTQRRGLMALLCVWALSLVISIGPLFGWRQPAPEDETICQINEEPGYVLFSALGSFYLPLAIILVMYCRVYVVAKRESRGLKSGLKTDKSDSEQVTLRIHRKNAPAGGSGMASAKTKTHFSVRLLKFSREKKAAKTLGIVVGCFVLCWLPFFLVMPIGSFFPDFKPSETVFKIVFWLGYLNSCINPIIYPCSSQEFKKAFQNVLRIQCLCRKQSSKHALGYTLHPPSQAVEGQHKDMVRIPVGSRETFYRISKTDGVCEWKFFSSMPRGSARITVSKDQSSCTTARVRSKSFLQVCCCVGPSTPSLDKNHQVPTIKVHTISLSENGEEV
# [7] = target: T5, Muscarinic acetylcholine receptor M1 (Homo sapiens, UniProt P11229); type: functional, cell-based
# T5 sequence (P11229 whole entry): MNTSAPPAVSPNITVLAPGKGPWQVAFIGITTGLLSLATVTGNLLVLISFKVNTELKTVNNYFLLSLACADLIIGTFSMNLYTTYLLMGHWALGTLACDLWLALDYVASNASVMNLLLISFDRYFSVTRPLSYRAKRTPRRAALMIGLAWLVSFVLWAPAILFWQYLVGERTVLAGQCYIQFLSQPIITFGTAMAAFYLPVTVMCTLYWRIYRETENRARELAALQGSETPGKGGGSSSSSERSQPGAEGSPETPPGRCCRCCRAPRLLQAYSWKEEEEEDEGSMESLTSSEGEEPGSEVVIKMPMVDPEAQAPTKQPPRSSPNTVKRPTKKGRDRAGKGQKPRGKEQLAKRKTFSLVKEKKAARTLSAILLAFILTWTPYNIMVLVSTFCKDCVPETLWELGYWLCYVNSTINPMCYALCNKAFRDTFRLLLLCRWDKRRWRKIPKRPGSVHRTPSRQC
# Also: assay procedure not described here.
Compound,AC50 [1] [µM],AC50 (Glucagon receptor) [µM],AC50 [2] [µM],AC50 [3] [µM],AC50 [4] [µM],AC50 [5] [µM],AC50 (D(1A) dopamine receptor) [µM],AC50 [6] [µM],AC50 [7] [µM]
CCC[C@@H]1C[C@@H](C(=O)N[C@@H]([C@H]2O[C@H](SC)[C@H](O)[C@@H](O)[C@H]2O)[C@H](C)Cl)N(C)C1 [CLINDAMYCIN],> 30,> 30,> 10,> 30,> 30,> 10,> 10,> 10,–
CN(CCOc1ccc(NS(C)(=O)=O)cc1)CCc1ccc(NS(C)(=O)=O)cc1 [DOFETILIDE],> 30,> 30,> 10,> 30,1.7,> 10,> 10,> 10,> 30
CC(C)OC(=O)[C@H](C)N[P@](=O)(OC[C@H]1O[C@@H](n2ccc(=O)[nH]c2=O)[C@](C)(F)[C@@H]1O)Oc1ccccc1 [SOFOSBUVIR],–,–,–,–,> 30,–,–,–,> 30
CC(=O)OC[C@H]1O[C@@H](n2ccc(=O)[nH]c2=O)[C@H](OC(C)=O)[C@@H]1OC(C)=O [URIDINE TRIACETATE],–,–,–,–,> 30,–,–,–,> 30
CCOC(=O)N[C@@H]1CC[C@@H]2[C@@H](C1)C[C@H]1C(=O)O[C@H](C)[C@H]1[C@H]2/C=C/c1ccc(-c2cccc(F)c2)cn1 [VORAPAXAR],–,–,–,–,1.3,–,–,–,26.3
